Measurements taken from patent US20230406883A1, “COMPOUNDS AND THEIR USE IN TREATMENT OF TACHYKININ RECEPTOR MEDIATED DISORDERS” (Embark Biotech ApS, priority 2020, published 2023).
Where “and” joins values, the source holds several entries; their conditions need not be identical. Equal entries are not always repeated. Numbered stars: 1 amine (or outer) side, 2 acyl side, 3 side chain; on linkers, the order of the positions; unused ones are H or OH. Square brackets hold non-standard residues; d marks the D form. Peptide text beside a SMILES is read from it. * marks the point of attachment. C18 diacid = O=C(O)CCCCCCCCCCCCCCCCC(=O)*; γGlu = O=C(O)[C@H](CCC(=O)[*:2])N[*:1]; NMeL = CN[C@@H](CC(C)C)C(=O)O; hSer = N[C@@H](CCO)C(=O)O; Nle = CCCC[C@H](N)C(=O)O; AEEA = NCCOCCOCC(=O)O; Aib = CC(C)(N)C(=O)O

Tests used:
hNK1R = molecular target: T1, hNK1R (Homo sapiens, UniProt P25103); assay: IP3 assay (inositol trisphosphate, 3H-myoinositol) in transiently transfected COS-7 cells; assay type: cell-based; conditions: COS-7 cells; for EC50: 0.2% ovalbumin buffer; for hNK1R, IP3 Efficacy: figure legends: percent of 10^-6 M NKA
T1 construct: host or cells: COS-7
T1 sequence (P25103 whole entry): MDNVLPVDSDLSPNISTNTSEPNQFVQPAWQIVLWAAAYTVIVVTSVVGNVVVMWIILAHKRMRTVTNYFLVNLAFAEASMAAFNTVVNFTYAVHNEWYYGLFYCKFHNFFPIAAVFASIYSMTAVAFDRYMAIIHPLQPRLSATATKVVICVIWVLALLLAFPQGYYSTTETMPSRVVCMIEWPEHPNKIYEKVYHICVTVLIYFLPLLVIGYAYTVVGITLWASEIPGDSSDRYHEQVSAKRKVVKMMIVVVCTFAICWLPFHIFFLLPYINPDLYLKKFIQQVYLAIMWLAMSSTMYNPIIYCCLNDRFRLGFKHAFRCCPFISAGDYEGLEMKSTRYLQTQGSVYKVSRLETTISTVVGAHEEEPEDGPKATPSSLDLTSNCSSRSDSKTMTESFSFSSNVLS
Summary of the method: (§1)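 COS-7 cells were transiently transfected with receptor plasmid and labelled with ³H-myo-inositol. Cells were lysed in formic acid, and ³H-inositol phosphates were captured on SPA YSI beads and counted.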

hNK3R = molecular target: T2, hNK3R (Homo sapiens, UniProt P29371); assay: as above; assay type: cell-based; conditions: COS-7 cells; for hNK3, IP3 Efficacy: figure legends: percent of 10^-6 M NKA; for EC50: 0.2% ovalbumin buffer, read-out: hNK3, IP3 EC50
T2 construct: host or cells: COS-7
T2 sequence (P29371 1-465): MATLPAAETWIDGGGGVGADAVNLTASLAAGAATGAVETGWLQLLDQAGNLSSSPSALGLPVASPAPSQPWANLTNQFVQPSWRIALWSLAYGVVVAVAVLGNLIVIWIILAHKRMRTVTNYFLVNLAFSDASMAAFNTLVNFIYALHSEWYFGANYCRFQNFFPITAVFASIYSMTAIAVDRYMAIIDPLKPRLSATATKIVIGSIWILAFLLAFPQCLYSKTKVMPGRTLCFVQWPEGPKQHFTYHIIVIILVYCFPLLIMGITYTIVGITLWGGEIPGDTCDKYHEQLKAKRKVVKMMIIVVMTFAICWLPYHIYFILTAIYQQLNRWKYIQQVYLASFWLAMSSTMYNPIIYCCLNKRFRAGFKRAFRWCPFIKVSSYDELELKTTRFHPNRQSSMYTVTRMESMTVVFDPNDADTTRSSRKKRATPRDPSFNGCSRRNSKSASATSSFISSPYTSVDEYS
Summary of the method: as §1

hNK2R [1] = molecular target: T3, hNK2R (Homo sapiens, UniProt P21452); assay: as above; assay type: cell-based; conditions: COS-7 cells; for EC50: 0.2% ovalbumin buffer; for hNK2R, IP3 Efficacy: figure legends: percent of 10^-6 M NKA
T3 construct: host or cells: COS-7
T3 sequence (P21452 1-398): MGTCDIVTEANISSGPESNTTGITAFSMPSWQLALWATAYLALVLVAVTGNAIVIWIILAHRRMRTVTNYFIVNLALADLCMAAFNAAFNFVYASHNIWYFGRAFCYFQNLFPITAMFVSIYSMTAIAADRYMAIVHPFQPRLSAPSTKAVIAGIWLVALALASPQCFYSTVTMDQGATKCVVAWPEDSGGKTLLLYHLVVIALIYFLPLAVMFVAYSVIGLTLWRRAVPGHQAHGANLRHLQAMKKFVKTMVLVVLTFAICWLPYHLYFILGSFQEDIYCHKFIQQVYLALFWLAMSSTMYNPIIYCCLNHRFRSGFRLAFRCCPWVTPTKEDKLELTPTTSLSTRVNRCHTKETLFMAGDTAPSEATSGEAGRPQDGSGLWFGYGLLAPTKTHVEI
Summary of the method: as §1

hNK2R [2] = molecular target: T3, hNK2R; assay: Hithunter cAMP assay (Gs-coupling) in transfected COS-7 cells; assay type: cell-based; conditions: for EC50 / hNK2R, cAMP Efficacy: COS-7 cells
Method: (§2) As a secondary measure of agonist-induced G-protein coupled receptor (GPCR) activation cyclin adenosine monophosphate (cAMP) was measured by the Hithunter cAMP-assay from DiscoverX. Assays were carried out using COS-7 cells transiently transfected by calcium phosphate transfection with a vector pcDNA3.1(+) encoding one of the indicated receptors (Genscript). Briefly, DNA mixed with CaCl2 (2 M) and TE-buffer (10 mM Tris-HCl, 1 mM EDTA, pH 7.5) was dropwise added to 2×HBS (50 mM HEPES, 280 mM NaCl, 1.5 mM NaH2PO4, pH 7.2) and incubated for 45 min at room temperature (22±2° C.). The mixture and a final concentration of 100 μM Chloroquine were added to the cells and left to incubate for 5 hours at 37° C. under standard cell culture conditions (10% CO2) before changing medium to fresh maintenance medium.
The cAMP-assay takes advantage of the tachykinin receptors' ability to induce production of the cAMP second messenger upon agonist (ligand) binding on receptor expressing cells. Production of cAMP stems from receptor coupling to Gs-protein although coupling to Gq-protein (IP3-production) is considered the primary signalling mechanism by tachykinin receptors.
The assay was performed the day after transfection. Briefly, maintenance medium was aspirated, and plates were washed ×1 in HBSS before adding assay buffer (HBSS+1 mM IBMX), pre-incubated for 30 min at 37° C. followed by 15 min incubation with agonist (ligand) at 37° C. After incubation, plates were subjected to cell lysis and anti-cAMP-antibody incubation as described by manufacturer. Luminescence was measured with EnVision Multimode Plate Reader from Perkin Elmer.

hNK2R [3] = molecular target: T3, hNK2R; assay: 3H-NKA competitive binding on transfected COS-7 cells; conditions: competition with 3H-NKA, 4 h at 4 C
Method: as §2, with “Assays” for “As a secondary measure of agonist-induced G-protein coupled receptor (GPCR) activation cyclin adenosine monophosphate (cAMP) was measured by the Hithunter cAMP-assay from DiscoverX. Assays”
The ^3H-NKA binding assay measures peptide-receptor binding by a competitive principle of receptor binding between radioactively labelled (3H) NKA (tracer) and synthesized peptide ligands on live cells expressing the receptor of interest. Assay solutions used: TKR buffer (50 mM Tris/HCl pH 7.5, 5 mM MnCl2, and 150 mM NaCl), wash buffer (TKR buffer+0.2% w/v OvAlb), binding buffer (wash buffer+0.1 mg/ml Bacitracin), and tracer solution (binding buffer+˜15000 cpm/well ^3H-tracer). The assay was performed on ice the day after transfection.
Briefly, maintenance medium was aspirated, and plates were washed ×1 in cold wash buffer before adding 100 μl cold binding buffer and placing at 4° C. to let plates cool. The cold plates were added indicated peptides (ligand) immediately followed by addition of cold tracer solution (˜15000 cpm/well). Plates were immediately moved to 4° C. and incubated for 4 hours. After incubation, binding was stopped by wash ×2 with cold wash buffer before adding 225 μl Ultima Gold XR. Plates were shaken at medium speed for approximately 30 min and left overnight at room temperature before counting the plates in a MicroBeta plate counter (Perkin Elmer).

SMILES	EC50 (hNK1R)	hNK1R, IP3 Efficacy (hNK1R)	hNK3, IP3 Efficacy (hNK3R)	EC50 (hNK2R [1])	hNK2R, IP3 Efficacy (hNK2R [1])	EC50 (hNK2R [2])	hNK2R, cAMP Efficacy (hNK2R [2])	EC50 (hNK2R [3])	EC50 (hNK3R)	Gs activation (cAMP), in words (hNK2R [2])
COCC[C@H](NC(=O)[C@H](CC(C)C)NC(=O)C(C)(C)NC(=O)[C@@H](NC(=O)[C@H](Cc1ccc(O)cc1)NC(=O)[C@H](CCCCN)NC(=O)[C@H](CC(=O)O)NC(=O)COCCOCCNC(=O)COCCOCCNC(=O)CC[C@H](NC(=O)CCCCCCCCCCCCCCCCC(=O)O)C(=O)O)C(C)C)C(N)=O [compound 394, *Asp;Lys;Tyr;Val;Aib;Leu;Metox;NH2] ({C18 diacid-γGlu-AEEA-AEEA}-DKYV[Aib]L[hSer](Me)-NH2)	~940 nM	35%	0%	5 nM	90%	306 nM	100%	~108 nM		
CCCC[C@H](NC(=O)[C@H](CC(C)C)N(C)C(=O)CNC(=O)[C@@H](NC(=O)[C@H](Cc1ccc(O)cc1)NC(=O)[C@H](CCCCN)NC(=O)[C@H](CCC(=O)O)NC(=O)COCCOCCNC(=O)COCCOCCNC(=O)CC[C@H](NC(=O)CCCCCCCCCCCCCCCCC(=O)O)C(=O)O)C(C)C)C(N)=O [compound 336, *Glu;Lys;Tyr;Val;Gly;NmLeu;Nle;NH2] ({C18 diacid-γGlu-AEEA-AEEA}-EKYVG[NMeL][Nle]-NH2)	~26000 nM and ~27000 nM	30% and 25%	10% and 0%	4 nM	80% and 75%		0%	80 nM	~3800 nM	does not activate Gs
CCCC[C@H](NC(=O)[C@H](CC(C)C)NC(=O)CNC(=O)[C@@H](NC(=O)[C@H](Cc1ccc(O)cc1)NC(=O)[C@H](CCCCN)NC(=O)[C@H](CC(=O)O)NC(=O)COCCOCCNC(=O)COCCOCCNC(=O)CC[C@H](NC(=O)CCCCCCCCCCCCCCCCC(=O)O)C(=O)O)C(C)C)C(N)=O [compound 392, *Asp;Lys;Tyr;Val;Gly;Leu;Nle;NH2] ({C18 diacid-γGlu-AEEA-AEEA}-DKYVGL[Nle]-NH2)	205 nM and 200 nM	52% and 30%	0%	5.4 nM	72% and 70%			25 nM		
CSCC[C@H](NC(=O)[C@H](CC(C)C)N(C)C(=O)CNC(=O)[C@@H](NC(=O)[C@H](Cc1ccc(O)cc1)NC(=O)[C@H](CCCCN)NC(=O)[C@H](CC(=O)O)NC(=O)COCCOCCNC(=O)COCCOCCNC(=O)CC[C@H](NC(=O)CCCCCCCCCCCCCCCCC(=O)O)C(=O)O)C(C)C)C(N)=O [compound 316, *Asp;Lys;Tyr;Val;Gly;NmLeu;Met;NH2] ({C18 diacid-γGlu-AEEA-AEEA}-DKYVG[NMeL]M-NH2)	20 nM	100%	50%	12 nM	120%	20 nM	100%	41 nM	~160 nM	
